The target in test [1] is T1, mJHBP (Aedes aegypti, UniProt Q16Y94).
T1 construct: gene 5570847; two OBP domains; gel filtration, Q-Sepharose and Phenyl-Sepharose purified; probably mature protein
T1 sequence (Q16Y94 25-311): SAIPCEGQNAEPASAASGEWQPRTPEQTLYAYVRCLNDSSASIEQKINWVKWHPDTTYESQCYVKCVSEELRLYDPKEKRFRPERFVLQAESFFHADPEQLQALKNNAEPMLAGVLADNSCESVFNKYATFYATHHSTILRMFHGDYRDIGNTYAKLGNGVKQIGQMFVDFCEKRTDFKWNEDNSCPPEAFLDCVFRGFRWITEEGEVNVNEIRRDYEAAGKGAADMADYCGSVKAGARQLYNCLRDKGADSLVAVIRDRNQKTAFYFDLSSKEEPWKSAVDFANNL
Put plainly: isothermal titration calorimetry, single-site fit. It is filed as binding. The conditions noted are these: read-out: Ka. The source says: isothermal titration calorimetry, single-site fit on mJHBP | wild type mJHBP.
(In general: In ITC the heat of successive injections is recorded.)

Test [2] deals with T2, mJHBP (Aedes aegypti, UniProt Q16Y94, Y152F).
T2 construct: gene 5570847; two OBP domains; gel filtration, Q-Sepharose and Phenyl-Sepharose purified; probably mature protein
T2 sequence (Q16Y94 25-311 Y152F): T1 sequence (Q16Y94 25-311)
Put plainly: isothermal titration calorimetry, single-site fit. It is filed as binding. To be noted: read-out: Ka (converted). The text has this: isothermal titration calorimetry, single-site fit on mJHBP | Y129F mutant.

Turning to `COC(=O)/C=C(\C)CC/C=C(\C)CC[C@H]1OC1(C)C` [JH III, juvenile hormone III], the Kd was 0.1 µM on mJHBP [1] and 1.09 µM at mJHBP [2].

(Values after article PMC6994123, “A mosquito juvenile hormone binding protein (mJHBP) regulates the activation of innate immune defenses and hemocyte development” (PLoS Pathogens, 2020).)
